The subject of data set [1] is Escherichia coli. The experiment in a line: Antibacterial activity against Escherichia coli B-3704 after 24 hrs by antibiotic disk assay. It is filed as functional.
Data set [2] in a line: Toxicity in chick embryo up to 100 ug. Also on record: species or system Gallus gallus. The conditions noted are these: chicken.
For data set [3], the system named is Bacillus cereus. The experiment in a line: Antibacterial activity against Bacillus cereus B-3705 after 24 hrs by antibiotic disk assay. The format is functional.

Regarding `O=C/C=C/C=C/C=C/C=C/C=C/C=C/C=O`, the MIC came to 50 µg in data set [1] and 10 µg in data set [3]. Also, in data set [2], the Activity entry was “Non-toxic”.

Source of the values: ChEMBL document CHEMBL1158250, “(all trans)-2,4,6,8,10,12-tetradecahexene-1,14-dial, a new pigment from Conidiobolus paulus” (J Nat Prod, 1996).
